{"source": "patent US20100178362A1", "about": "“CHROMIUM COMPLEXES FOR IMPROVEMENT OF MEMORY AND COGNITIVE FUNCTION” (priority 2007, published 2010)", "key": {"HFD/STZ-treated rats": {"tested_on": "HFD/STZ-treated rats", "experiment": "Rat model of type 2 diabetes (high-fat diet + streptozotocin): chromium, carbohydrate metabolism and serotonergic properties", "type": "in vivo, male Sprague-Dawley rats", "parameters": "Cortisol: unit not given here", "method": "An animal model of type 2 diabetes was produced by feeding male Sprague-Dawley rats (n=33) with a high-fat diet (HFD, 40% Kcal from fat) for 2 weeks, then intraperitoneally administering streptozotocin (STZ, 40 mg/kg). The HFD/STZ-treated rats were then administered 80 mcg chromium picolinate/kg body weight/day for 10 weeks. Chromium picolinate was obtained from Nutrition 21, Purchase, N.Y. Untreated Sprague-Dawley (standard control diet) and HFD/STZ-treated rats not administered chromium picolinate served as controls.\nChromium picolinate administration to HFD/STZ treated rats increased brain chromium levels and improved all measurements or carbohydrate metabolism and serotonergic properties."}, "[1]": {"tested_on": "spatial learning and memory", "experiment": "Morris Water Maze test of spatial learning and memory", "type": "in vivo, male Wistar rats", "conditions": "for Improvement of spatial learning and/or memory: control animals and insulin-resistant animals; for Escape latency compared to controls: treatment for twelve weeks", "text": "8-week old, male, Wistar rats were divided into eight groups: four control groups (C) and four insulin-resistant groups (HFD). Insulin resistance was induced in by feeding the rats a high-fat diet (40% of calories as fat). The four groups in the control and insulin-resistant groups included: a no treatment group, a 14.3 mcg chromium picolinate group (CrPic), a 19.7 mcg chromium histidinate group (CrHis), and a 7.15 chromium picolinate and 9.85 chromium histidinate group (CrPic+CrHis). Four rats were assigned to each of the eight groups. Treatments were administered for twelve weeks.\nSpatial learning and memory were then tested using the Morris Water Maze test. Rats were placed in a circular water tank (120 cm diameter, 50 cm height) that was partially filled with water (25° C.). Milk powder was used to render the water opaque. Each rat was acclimated to the task with two days of free-swimming in the pool with no platform. […] Distal spatial cues were provided and kept constant throughout the testing, such that the rats could use the cues to find the platform. Rats were given 60 seconds to find the platform during each trial. The escape latency was defined as the time required for the rat to find a hidden platform.\nA probe trial was performed in which the hidden platform was removed from the pool, and the animal was allowed to swim for 60 seconds. Typically, a rat will swim in a quadrant of the pool where the platform was previously hidden."}, "[2]": {"experiment": "Placebo-controlled trial in Mild Cognitive Impairment: chromium to creatinine ratio", "type": "in vivo, men and women", "method": "(§1) A randomized, double blind, placebo-controlled trial is conducted to evaluate the efficacy of chromium picolinate in producing enhancements of neuropsychological function in men and women with Mild Cognitive Impairment. Changes in indices of glucose metabolism and in salivary cortisol levels also are measured to gather exploratory information concerning potential mechanisms by which the intervention produces its effects. The subjects participate in a 12-week protocol with major assessments of neuropsychological and biological measures at pre-treatment baseline and during the final week of the intervention. In addition, a brief interim evaluation of neurocognitive function is conducted at 6 weeks to gather information that to assess trends and acute response. Mood, as a potential covariate of the neurobehavioral outcome measures, is also assessed. Overall diet and consumption of other supplements are assessed with diet diaries at different phases of the intervention. Compliance and adverse responses are monitored throughout the period of the intervention by means of weekly telephone contacts.\n(§2) Chromium picolinate: The chromium supplement is provided by Nutrition21, Purchase, N.Y., a major distributor of the chromium picolinate supplement form. […]"}, "memory function": {"tested_on": "memory function", "experiment": "California Verbal Learning Test in trial subjects with Mild Cognitive Impairment", "type": "in vivo, men and women", "method": "as §1\nCalifornia Verbal Learning Test: The California Verbal Learning Test (CVLT) is among the best designed of a number of list learning procedures used to assess memory consolidation ability. It provides data on learning rate or efficiency, interference effects, recall, and recognition memory. Reliability and validity data are adequate and well established. Our data with a middle-aged sample indicated a trend for recall and recognition memory effects on this procedure.\n(§3) Chromium picolinate: The chromium supplement is provided by Nutrition21, Purchase, N.Y., a major distributor of the chromium picolinate supplement form. A single capsule 1000 mcg dose is administered to subjects receiving the chromium treatment with the morning meal each day for the duration of the intervention. Similar appearing placebo capsules are administered in a similar manner to subjects receiving the placebo treatment."}, "motor speed": {"tested_on": "motor speed", "experiment": "Trail-Making task in trial subjects with Mild Cognitive Impairment", "type": "in vivo, men and women", "method": "as §1, §2"}, "cerebral activation": {"tested_on": "cerebral activation", "experiment": "fMRI during working memory (visual-spatial n-back) task in trial subjects with Mild Cognitive Impairment", "type": "in vivo, men and women", "method": "as §1, §3\nA neuropsychological protocol is administered and fMRI scans are obtained before and after treatments using a Varian INOVA 4 Tesla scanner. Two runs of BOLD EPI, 30 contiguous 5 mm coronal slices are acquired. Images are obtained while subjects performed the NIH visual-spatial n-back task with 0- and 1-back blocks. There are 20, 1.5 s trials per block; each block repeated 6 times. Image analyses are performed using AFNI and included co-registration, motion correction, blur, normalization, and event-related analysis. […]"}, "rats": {"tested_on": "rats", "conditions": "cited from earlier work"}, "[3]": {"conditions": "80 mcg chromium picolinate/kg body weight/day for 10 weeks, mean ± SD"}, "[4]": {"conditions": "80 mcg/kg body weight/day for 10 weeks"}, "[5]": {"conditions": "control rats (C), FIGS. 1A and 1C"}, "[6]": {"conditions": "Study 1: 1000 mcg elemental chromium daily, 12 weeks, v placebo, effect size moderate"}, "[7]": {"conditions": "as printed under Results - Study 2"}}, "note": "Where two headings read alike, the source gives them in different places.", "data": [{"molecule": "chromium picolinate", "values": [{"measurement": "CISI (insulin sensitivity)", "setting": "HFD/STZ-treated rats; [3]", "result": "1.3 ± 0.04"}, {"measurement": "Chromium - Brain", "setting": "HFD/STZ-treated rats; [3]", "result": "22.6 ± 1.2", "unit": "ng/g"}, {"measurement": "Cortisol", "setting": "HFD/STZ-treated rats; [3]", "result": "11.5 ± 0.4"}, {"measurement": "Glucose", "setting": "HFD/STZ-treated rats; [3]", "result": "287.0 ± 2.7", "unit": "mg/dL"}, {"measurement": "Insulin Brain", "setting": "HFD/STZ-treated rats; [3]", "result": "8.9 ± 2.0", "unit": "ng/g"}, {"measurement": "Insulin Serum", "setting": "HFD/STZ-treated rats; [3]", "result": "25.9 ± 0.5", "unit": "uU/mL"}, {"measurement": "Melatonin", "setting": "HFD/STZ-treated rats; [3]", "result": "16.3 ± 0.2", "unit": "µg/g"}, {"measurement": "Serotonin Brain", "setting": "HFD/STZ-treated rats; [3]", "result": "520.3 ± 4.1", "unit": "µg/g"}, {"measurement": "Serotonin Serum", "setting": "HFD/STZ-treated rats; [3]", "result": "174.9 ± 2.5", "unit": "mg/dL"}, {"measurement": "Tryptophan Brain", "setting": "HFD/STZ-treated rats; [3]", "result": "5.5 ± 0.2", "unit": "µg/g"}, {"measurement": "Tryptophan Serum", "setting": "HFD/STZ-treated rats; [3]", "result": "16.1 ± 0.3", "unit": "mg/dL"}, {"measurement": "Insulin resistance compared to the HFD/STZ group", "setting": "HFD/STZ-treated rats; [4]", "result": "reduced"}, {"measurement": "Tolerability / adverse events", "setting": "HFD/STZ-treated rats; [4]", "result": "well tolerated without any adverse events"}, {"measurement": "Improvement of spatial learning and/or memory", "setting": "[1]", "result": "effective in improving spatial learning and/or memory"}, {"measurement": "Escape latency compared to controls", "setting": "[1]; [5]", "result": "significantly shorter escape latencies on day 3"}, {"measurement": "Chromium to creatinine ratios at treatment termination", "setting": "[2]; Study 1: 1000 mcg elemental chromium daily for 12 weeks (n=11) v placebo (n=10), F=8.85, p=0.008", "result": "significantly elevated"}, {"measurement": "Chromium to creatinine ratios at treatment termination", "setting": "[2]; Study 2: 1000 mcg elemental chromium daily for 12 weeks (n=9) v placebo (n=4), F=8.86, p<0.0001", "result": "elevated"}, {"measurement": "Accuracy of memory on the California Verbal Learning Test", "setting": "memory function; Study 1: 1000 mcg elemental chromium daily, 12 weeks, v placebo", "result": "No group differences"}, {"measurement": "Semantic interference (free recall intrusions)", "setting": "memory function; [6]", "result": "trend for reduced semantic interference"}, {"measurement": "Intrusion errors on the California Verbal Learning Test", "setting": "memory function; Study 2: administered outside the scanner, relative to the placebo group", "result": "reduced intrusion errors"}, {"measurement": "Accuracy of memory on the California Verbal Learning Test", "setting": "memory function; [7]", "result": "No group differences"}, {"measurement": "Semantic interference", "setting": "memory function; [7]", "result": "trend for reduced semantic interference"}, {"measurement": "Motor speed on the Trail-Making task", "setting": "motor speed; [6]", "result": "trend for enhanced motor speed"}, {"measurement": "Motor speed", "setting": "motor speed; as printed under Results - Study 2, sentence breaks off", "result": "trend for enhanced motor"}, {"measurement": "fMRI activation pattern, pre- v post-intervention scans", "setting": "cerebral activation; Study 1: individual subjects, increasing working memory load", "result": "increasing activation in left frontal and left parietal cortices"}, {"measurement": "Performance on the working memory task", "setting": "cerebral activation; Study 2: n-back task in the scanner, v placebo", "result": "not reflected in differential performance"}, {"measurement": "fMRI activation relative to placebo treated subjects", "setting": "cerebral activation; Study 2: right thalamic, right temporal, right posterior parietal and bilateral frontal regions, p=0.005 corrected", "result": "greater activation"}, {"measurement": "Toxic effects", "setting": "rats; rat, in vivo", "result": "without toxic effects"}]}, {"molecule": "chromium histidinate", "values": [{"measurement": "Improvement of spatial learning and/or memory", "setting": "[1]", "result": "effective in improving spatial learning and/or memory"}, {"measurement": "Escape latency compared to controls", "setting": "[1]; [5]", "result": "significantly shorter escape latencies on day 3"}, {"measurement": "Escape latency compared to controls", "setting": "[1]; insulin-resistant rats (HFD), FIGS. 1B and 1D", "result": "significantly shorter escape latencies on days 3 and 5"}]}, {"molecule": "[Cl][Cr]([Cl])[Cl]", "note": "[chromium chloride]", "values": [{"measurement": "Toxic effects", "setting": "rats; rats, levels several thousand times the upper limit of the human ESADDI for chromium (based on body weight)", "result": "without toxic effects"}]}]}
